From US20050170041A1, “Chewing gum compositions comprising monatin and methods for making same” (Cargill, Inc., priority 2003, published 2005)
Blank lines part the entries; values can stand above or below the compound they belong to. Residues, ends and D or L forms follow the SMILES beside them.

What was measured:
[1] = Sweetness comparison procedure against sucrose reference solutions (sensory panel); format: in vivo; conditions: experienced sensory evaluators
Experimental: The S,S stereoisomer of monatin is approximately 50-200 times sweeter than sucrose by weight. The R,R stereoisomer of monatin is approximately 2000-2400 times sweeter than sucrose by weight. The sweetness of the monatin is calculated using experienced sensory evaluators in a sweetness comparison procedure, where a test sweetener solution is matched for sweetness intensity against one of a series of reference solutions.
Specifically, one may assess sweetness of a sweetener relative to sucrose by using a panel of trained sensory evaluators experienced in the sweetness estimation procedure. All samples (in same buffers) are served in duplicate at a temperature of 22° C.±1° C. Sample solutions may be prepared, for example, using a buffer comprising 0.16% (v/w) citric acid and 0.02% (v/w) sodium citrate at ˜pH 3.0. Test solutions, coded with 3 digit random number codes, are presented individually to panelists, in random order. Sucrose reference standards, ranging from 2.0-10.0% (w/v) sucrose, increasing in steps of 0.5% (w/v) sucrose are also provided. Panelists are asked to estimate sweetness by comparing the sweetness of the test solution to the sucrose standards. […]
Sucrose equivalent value (SEV) (e.g., % sucrose), determined by the panel of trained sensory evaluators, is plotted as a function of monatin concentration to obtain a dose response curve. […]

[2] = Sensory evaluation of sweeteners in iced tea; format: in vivo; conditions: 200 ml serving, aspartame 450 ppm, monatin 40 ppm, panel n=6; for Comments: sweetness and flavor profile: sucralose 170 ppm
Experimental: Monatin formulations, including R,R monatin or R,R monatin/erythritol combinations, were assessed relative to other known sweeteners (aspartame and sucralose) in iced tea. The key sensory parameters assessed included sweetness quality, aftertaste, bitter taste and its aftertaste. Qualitative evaluation has been carried out.
An ice tea formulation was developed to evaluate sweetener performance (Table 7).
Sweeteners were added to tea at the following concentrations:
The evaluation of ice tea drinks was carried out by a panel (n=6) of experienced sensory evaluators.

[3] = Sensory stability of monatin and aspartame at pH 2.5, 3.0, 4.0 at 40° C.; format: physicochemical; conditions: for Rate constant (k) of sweetness loss: 40° C., pseudo-first order assumed; for Sweetness Retained: after 100 days storage at 40° C.; for SEV Aspartame / Retention of Aspartame Sweetness: stored at 40° C., aspartame 400 ppm
Experimental: The sensory stability of monatin solutions prepared at pH 2.5, 3.0 and 4.0 and stored at 40° C. was monitored for 100 days. Loss of sweetness from these solutions was compared with the losses of sweetness from aspartame solutions prepared and stored under identical conditions.
The sensory stability of monatin (8% SEV, ˜55 ppm, synthetic blend containing approximately 96% of the 2R,4R/2S, 4S enantiometric pair and 4% of the 2R,4S/2S,4R enantiometric pair) in phosphate/citrate buffers having a pH of 2.5, 3.0, and 4.0 was examined after storage at 40° C. The stability of monatin was compared to that of aspartame (400 ppm) in the same buffers. Three sucrose reference solutions were prepared in the same phosphate/citrate buffers as the monatin and aspartame solutions. All prepared solutions were stored in the dark.
The sweetness of each sweetener relative to sucrose was assessed in duplicate by a panel (n=8) of trained sensory evaluators experienced in the sweetness estimation procedure. All samples (in the same buffers) were served in duplicate at a temperature of 22° C.±1° C. Monatin (test) solutions, coded with 3 digit random number codes were presented individually to panelists, in random order. Sucrose reference standards, ranging from 4.0-10.0% (w/v) sucrose, increasing in steps of 0.5% (w/v) sucrose were also provided. Panelists were asked to estimate sweetness by comparing the sweetness of the test solution to the sucrose standards. This was carried out by taking 3 sips of the test solution, followed by a sip of water, followed by 3 sips of sucrose standard followed by a sip of water, etc. Panelists were encouraged to estimate the sweetness to one decimal place, e.g., 6.8, 8.5. A five minute rest period was imposed between evaluating the test solutions. Panelists were also asked to rinse well and eat a cracker to reduce any potential carry over effects.
If a pseudo-first order breakdown reaction is assumed, a plot of logn percentage retention versus time (logn % RTN v. t) allows estimation of the half-life (t½) and rate constant (k) of sweetness loss under any given set of conditions. In so doing, the kinetics of monatin and aspartame sweetness loss may be summarized as follows in Table 14.

SMILES: NC(CC(O)(Cc1c[nH]c2ccccc12)C(=O)O)C(=O)O (single isomer, unassigned) [S,S stereoisomer of monatin]
sweetness relative to sucrose by weight [1]: 50-200 times sweeter than sucrose

SMILES: OC[C@H]1O[C@H](O[C@]2(CCl)O[C@H](CCl)[C@@H](O)[C@@H]2O)[C@H](O)[C@@H](O)[C@H]1Cl [Sucralose]
Comments: sweetness and flavor profile [2]: Delay in sweetness onset means first

SMILES: N[C@@H](C[C@@](O)(Cc1c[nH]c2ccccc12)C(=O)O)C(=O)O (single isomer, unassigned) [R,R stereoisomer of monatin]
sweetness relative to sucrose by weight [1]: 2000-2400 times sweeter than sucrose

Rate constant (k) of sweetness loss ([3]; pH 2.5): 0.013 day⁻¹ | Sweetness Retained ([3]; pH 2.5): 11% | Retention of Aspartame Sweetness ([3]; pH 2.5, day 1): 94.0% | Retention of Aspartame Sweetness ([3]; pH 2.5, day 2): 92.6% | Retention of Aspartame Sweetness ([3]; pH 2.5, day 3): 89.9% | Retention of Aspartame Sweetness ([3]; pH 2.5, day 4): 85.7% | Retention of Aspartame Sweetness ([3]; pH 2.5, day 7): 81.9% | Retention of Aspartame Sweetness ([3]; pH 2.5, day 8): 81.5% | Retention of Aspartame Sweetness ([3]; pH 2.5, day 9): 81.3% | Retention of Aspartame Sweetness ([3]; pH 2.5, day 11): 79.8% | Retention of Aspartame Sweetness ([3]; pH 2.5, day 50): 57.1% | Retention of Aspartame Sweetness ([3]; pH 2.5, day 100): 10.9% | Rate constant (k) of sweetness loss ([3]; pH 3.0): 0.009 day⁻¹ | Sweetness Retained ([3]; pH 3.0): 31% | Retention of Aspartame Sweetness ([3]; pH 3.0, day 1): 96.5% | Retention of Aspartame Sweetness ([3]; pH 3.0, day 2): 96.1% | Retention of Aspartame Sweetness ([3]; pH 3.0, day 3): 92.3% | Retention of Aspartame Sweetness ([3]; pH 3.0, day 4): 89.9% | Retention of Aspartame Sweetness ([3]; pH 3.0, day 7): 86.3% | Retention of Aspartame Sweetness ([3]; pH 3.0, day 8): 82.9% | Retention of Aspartame Sweetness ([3]; pH 3.0, day 9): 83.1% | Retention of Aspartame Sweetness ([3]; pH 3.0, day 11): 81.5% | Retention of Aspartame Sweetness ([3]; pH 3.0, day 50): 65.9% | Retention of Aspartame Sweetness ([3]; pH 3.0, day 100): 30.8% | Rate constant (k) of sweetness loss ([3]; pH 4.0): 0.005 day⁻¹ | Sweetness Retained ([3]; pH 4.0): 58% | Retention of Aspartame Sweetness ([3]; pH 4.0, day 3): 95.1% | Retention of Aspartame Sweetness ([3]; pH 4.0, day 8): 87.8% | Retention of Aspartame Sweetness ([3]; pH 4.0, day 11): 84.8% | Retention of Aspartame Sweetness ([3]; pH 4.0, day 17): 81.0% | Retention of Aspartame Sweetness ([3]; pH 4.0, day 24): 82.4% | Retention of Aspartame Sweetness ([3]; pH 4.0, day 50): 74.5% | Retention of Aspartame Sweetness ([3]; pH 4.0, day 100): 57.7%
SMILES: COC(=O)[C@H](Cc1ccccc1)NC(=O)[C@@H](N)CC(=O)O [Aspartame, reference compound] (H-Asp-Phe-OMe)
SEV Aspartame ([3]; pH 2.5, day 0): 7.34 % sucrose | SEV Aspartame ([3]; pH 2.5, day 1): 6.90 % sucrose | SEV Aspartame ([3]; pH 2.5, day 2): 6.80 % sucrose | SEV Aspartame ([3]; pH 2.5, day 3): 6.60 % sucrose | SEV Aspartame ([3]; pH 2.5, day 4): 6.29 % sucrose | SEV Aspartame ([3]; pH 2.5, day 7): 6.01 % sucrose | SEV Aspartame ([3]; pH 2.5, day 8): 5.98 % sucrose | SEV Aspartame ([3]; pH 2.5, day 9): 5.97 % sucrose | SEV Aspartame ([3]; pH 2.5, day 11): 5.86 % sucrose | SEV Aspartame ([3]; pH 2.5, day 50): 4.19 % sucrose | SEV Aspartame ([3]; pH 2.5, day 100): 0.80 % sucrose | SEV Aspartame ([3]; pH 3.0, day 0): 7.15 % sucrose | SEV Aspartame ([3]; pH 3.0, day 1): 6.90 % sucrose | SEV Aspartame ([3]; pH 3.0, day 2): 6.87 % sucrose | SEV Aspartame ([3]; pH 3.0, day 3): 6.60 % sucrose | SEV Aspartame ([3]; pH 3.0, day 4): 6.43 % sucrose | SEV Aspartame ([3]; pH 3.0, day 7): 6.17 % sucrose | SEV Aspartame ([3]; pH 3.0, day 8): 5.93 % sucrose | SEV Aspartame ([3]; pH 3.0, day 9): 5.94 % sucrose | SEV Aspartame ([3]; pH 3.0, day 11): 5.83 % sucrose | SEV Aspartame ([3]; pH 3.0, day 50): 4.71 % sucrose | SEV Aspartame ([3]; pH 3.0, day 100): 2.20 % sucrose | SEV Aspartame ([3]; pH 4.0, day 0): 7.10 % sucrose | SEV Aspartame ([3]; pH 4.0, day 3): 6.75 % sucrose | SEV Aspartame ([3]; pH 4.0, day 8): 6.23 % sucrose | SEV Aspartame ([3]; pH 4.0, day 11): 6.02 % sucrose | SEV Aspartame ([3]; pH 4.0, day 17): 5.75 % sucrose | SEV Aspartame ([3]; pH 4.0, day 24): 5.85 % sucrose | SEV Aspartame ([3]; pH 4.0, day 50): 5.29 % sucrose | SEV Aspartame ([3]; pH 4.0, day 100): 4.10 % sucrose | Comments: flavor enhancement (lemon flavor notes) [2]: tea flavor. No evidence of flavor | Comments: sweetness and flavor profile [2]: Good temporal characteristics although
